Measured values taken from US11135176B1 (Florida A&M University, priority 2016, dated 2021).

Tests used:
[1] = Solubility of IBU in lipids (visual); format: physicochemical; set-up: key to Solubility of IBU in Geleol mono and diglyceride NF / Solubility of IBU in Glyceryl monostearate / Solubility of IBU in Stearic acid / Solubility of IBU in COMPRITOL ® 888ATO / Solubility of IBU in PRECIROL ® ATO5: +: Clear or transparent mixture implies the drug is soluble in lipid; conditions: for Solubility of IBU in COMPRITOL ® 888ATO / Solubility of IBU in Geleol mono and diglyceride NF / Solubility of IBU in Glyceryl monostearate / Solubility of IBU in PRECIROL ® ATO5 / Solubility of IBU in Stearic acid: 90° C.
Method: The selection of lipid was done by evaluating the solubility of IBU in different lipids such as Compritol® 888ATO (glyceryl behenate), Precirol® ATOS (glyceryl palmitosterate), geleol mono and diglyceride NF, glyceryl monostearate and stearic acid. Briefly, 10 mg of IBU was weighed and added into Eppendorf tube containing 100 mg of lipid. The mixture was then heated for 10 minutes in a water bath at 90° C. to facilitate solubilization. […] Finally, total of 40 mg of drug was added in 100 mg of lipid and checked for the precipitation.

[2] = Drug solubility in 4% of surfactant, analyzed by HPLC; format: physicochemical
[3] = 10 mg of IBU/100 mg of solid lipid
[4] = 20 mg of IBU/100 mg of solid lipid
[5] = 30 mg of IBU/100 mg of solid lipid
[6] = 40 mg of IBU/100 mg of solid lipid

- Solubility of IBU in COMPRITOL ® 888ATO [1, 3]: +
- Solubility of IBU in Geleol mono and diglyceride NF [1, 3]: +
- Solubility of IBU in Glyceryl monostearate [1, 3]: +
- Solubility of IBU in PRECIROL ® ATO5 [1, 3]: +
- Solubility of IBU in Stearic acid [1, 3]: +
- Solubility of IBU in COMPRITOL ® 888ATO [1, 4]: +
- Solubility of IBU in Geleol mono and diglyceride NF [1, 4]: +
- Solubility of IBU in Glyceryl monostearate [1, 4]: +
- Solubility of IBU in PRECIROL ® ATO5 [1, 4]: +
- Solubility of IBU in Stearic acid [1, 4]: +
- Solubility of IBU in COMPRITOL ® 888ATO [1, 5]: +
- Solubility of IBU in Geleol mono and diglyceride NF [1, 5]: +
- Solubility of IBU in Glyceryl monostearate [1, 5]: +
- Solubility of IBU in PRECIROL ® ATO5 [1, 5]: +
- Solubility of IBU in Stearic acid [1, 5]: +
- Solubility of IBU in COMPRITOL ® 888ATO [1, 6]: +
- Solubility of IBU in Geleol mono and diglyceride NF [1, 6]: +
- Solubility of IBU in Glyceryl monostearate [1, 6]: +
- Solubility of IBU in PRECIROL ® ATO5 [1, 6]: +
- Solubility of IBU in Stearic acid [1, 6]: +
- solubility of IBU in the lipid ([1]; 40 of IBU, heated at 90 C, Compritol 888 ATO, Precirol ATO 5, geleol mono and diglyceride NF, glyceryl monostearate and stearic acid): completely soluble
- drug soluble in the surfactant [2]: less than 5%
Compound: CC(C)Cc1ccc(C(C)C(=O)O)cc1 (stereo not shown) [IBU, ibuprofen]
